Values of other authors in US20240173301A1, “2-IMINOBIOTIN FOR USE IN THE TREATMENT OF STROKE” (NEUROPHYXIA B.V., priority 2021, published 2024).
Where two headings read alike, the source gives them in different places. Where no end group is shown, it is not given here.

Tests used:
[1] = adult human patients after cardiac arrest
[2] = healthy volunteers; preclinical safety; Phase I and II studies in neonates with asphyxia and adults after cardiac arrest
[3] = in vivo
[4] = test system: neuronal culture
[5] = single dose

For `N=C1N[C@H]2[C@H](CS[C@H]2CCCCC(=O)O)N1` [2-IB, 2-iminobiotin], the “tolerability of eGFR adjusted dose” value [1] is listed as “tolerated without clinical drug-related adverse events”, the safety [2] is listed as “proven to be safe” and the “effect on tissue damage after ischemia-reperfusion” value [3] is listed as “prevents (further) tissue damage”. For the same compound, the “concentration range at which 2-IB is most active in vitro” value [4] was “around 30 ng/ml”.

For YGRKKRRQRRRKLSSIESDV [nerinetide], the clinical outcome ([5]; alteplase-treated stroke patients) is given as “did not show favorable outcomes” and the clinical outcome ([5]; stroke patients that did not receive alteplase) is given as “significant improvement”.
